One experiment concerns the target T1, human TGR5 receptor (Homo sapiens, UniProt Q8TDU6).
T1 construct: host or cells: CHO-K1 (hTGR5-CHO cells)
T1 sequence (Q8TDU6 1-330): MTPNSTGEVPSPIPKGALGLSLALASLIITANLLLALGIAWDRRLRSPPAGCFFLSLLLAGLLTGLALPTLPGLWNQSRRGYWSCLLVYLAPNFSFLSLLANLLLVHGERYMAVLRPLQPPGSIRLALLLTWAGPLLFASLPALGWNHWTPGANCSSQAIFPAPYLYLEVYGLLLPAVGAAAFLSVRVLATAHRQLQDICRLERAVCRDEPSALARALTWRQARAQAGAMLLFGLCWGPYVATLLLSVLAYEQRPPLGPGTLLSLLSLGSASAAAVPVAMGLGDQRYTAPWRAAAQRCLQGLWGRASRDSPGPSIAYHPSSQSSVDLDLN
As to the kind of experiment: Human TGR5 cAMP production assay. The settings on record: human TGR5, luminescent cAMP assay; coded A-D; read-out: Human TGR5 Lum. cAMP Activity (EC50). The format is cell-based. Here is the method:
Human TGR5 cAMP Production Assay
We evaluated the Compounds of the present invention for their ability to induce cAMP production using CHO-K1 cells overexpressing the human TGR5 receptor. CHO-K1 cells stably expressing human TGR5 receptor (accession number NM_001077194.1 (hTGR5) (i.e., hTGR5-CHO cells) were purchased from DiscoveRx Corporation (Fremont, Calif.). hTGR5-CHO cells were grown in Ham's F-12 media supplemented with 10% Fetal Bovine Serum, 1% Penicillin-Streptomycin, 2 mM L-Alanine L-Glutamine (Glutamax), and 800 μg/mL Geneticin selection. The cAMP production assay was performed using DiscoveRx's cAMP XS+ kit (Catalog No. 90-0075XL) following the manufacturer's recommended protocol. Briefly, hTGR5-CHO cells were harvested using non-enzymatic cell dissociation buffer (Sigma-Aldrich, St. Louis, Mo.) and 1×10^6 cells were combined in Phosphate-Buffered Saline (PBS) to a final volume of 496 μL to which 4 μL of 125 mM IBMX (Sigma-Aldrich, St. Louis, Mo.) was added. 500 μL of cAMP antibody solution was added to the harvested cells and incubated at room temperature for 20 min.
Test compounds were serially diluted (half-log dilutions) in DMSO and then further diluted 1:50 in PBS, 10 mM HEPES buffer. 2 μL of serially diluted compound was added to a 384-well low volume plate (Greiner; cat #784075) and centrifuged briefly. 2 μL of the cell/cAMP antibody mixture was then added to each compound-containing well and allowed to incubate at room temperature for one hour. Following incubation, the XS+ kits' ED/Lysis/CL Substrate Working Solution was prepared following the manufacturer's recommended protocol and 4 μL was added to each well of the plate. The plate was then incubated for one hour at room temperature. Following incubation, 4 μL of Enzyme Acceptor reagent was added to the plate and allowed to incubate overnight at room temperature. Luminescent signal was then detected using the Viewlux instrument (Perkin-Elmer, Waltham, Mass.).
(§1) In Table 33, EC50 values for both human and mouse cells were determined according to the TGR5 cAMP assays described above.
A general note: Cyclic AMP is a second messenger, typically raised through Gs and lowered through Gi signalling.

The next experiment has as its target T2, mouse TGR5 receptor (Mus musculus, UniProt Q80SS6).
T2 construct: expressed in transfected cells; host or cells: HEK293-EBNA (293 c18, ATCC CRL10852), Hygromycin B selection
T2 sequence (Q80SS6 1-329): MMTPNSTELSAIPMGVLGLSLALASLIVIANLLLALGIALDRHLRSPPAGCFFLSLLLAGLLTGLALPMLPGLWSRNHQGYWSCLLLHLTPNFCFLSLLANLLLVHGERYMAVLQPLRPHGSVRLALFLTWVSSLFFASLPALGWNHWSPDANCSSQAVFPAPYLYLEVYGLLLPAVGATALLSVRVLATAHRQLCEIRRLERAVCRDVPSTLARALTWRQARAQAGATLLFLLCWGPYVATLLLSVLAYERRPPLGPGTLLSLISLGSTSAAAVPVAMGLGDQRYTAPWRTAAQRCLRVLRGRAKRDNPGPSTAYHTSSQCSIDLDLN
As to the kind of experiment: Mouse TGR5 cAMP production assay (HTRF, Cisbio cAMP HiRange). The format is cell-based. The settings on record: HEK293-EBNA cells overexpressing mouse TGR5, HTRF cAMP HiRange; coded A-D.
Text: Mouse TGR5 cAMP Production Assay
We evaluated compounds of the present invention for their ability to induce cAMP production in HEK-EBNA cells overexpressing the mouse TGR5 receptor. Human embryonic kidney cells (HEK293-EBNA) stably expressing mouse TGR5 receptor were established using the following procedure. Specifically, a commercially-obtained gene encoding mouse TGR5 (accession number BC116914) from Thermo Scientific (Waltham, Mass.) was cloned into an episomal expression vector. The resulting expression plasmid was then transfected into 293 c18 (ATCC® CRL10852™) cells, which express the Epstein-Barr virus nuclear antigen EBNA1 and can support the replication of episomal vectors. Selection for the plasmid was maintained with Hygromycin B. Cells were cultured and maintained in DMEM (Sigma; cat #6429) supplemented with 10% Fetal Bovine Serum, 1% penicillin/streptomycin, 2 mM L-alanine L-glutamine (GlutaMax), and 250 μg/mL Hygromycin.
2. HTRF cAMP Production Assay
In this second cAMP production assay, the cAMP production was measured in 384-well low volume plates (Greiner; cat #784075) using the Cisbio™ cAMP HiRange HTRF Assay Kit (Cisbio) according to the manufacturer's protocol.
Briefly, compounds were initially diluted in 100% DMSO (12-point serial dilution by half logs) in a 96-well plate and then were further diluted 1:50 in PBS containing 10 mM HEPES. 5 μL were transferred to the 384-well assay plate in duplicate. HEK293-EBNA cells stably overexpressing mouse TGR5 were harvested using non-enzymatic cell dissociation buffer (Sigma), spun down, then resuspended in serum-free DMEM with 500 μM IBMX at a density of 500,000 cells/mL. 5 μL of cell suspension was transferred to each well of the 384-well assay plate already containing compound. The plate was covered and incubated at room temperature for 1 hour. The d2-cAMP and anti-cAMP Ab-cryptate stock solutions were prepared as per kit instructions. Then 5 μL of each conjugate (d2 and cryptate) were added to each well of the assay plate. The plate was covered and incubated at room temperature for 1 hour. The plate was read on an Envision™ plate reader (Perkin Elmer).
as §1

By EC50 is commonly meant the concentration at which the effect is half-maximal.

As to `Cc1cnccc1-c1cccc([C@H]2C[C@@H](C(=O)O)CCN2S(=O)(=O)c2ccccc2C(F)(F)F)c1` (relative stereo) [Compound 55, cis-2-(3-(3-Methylpyridin-4-yl)phenyl)-1-((2-(trifluoromethyl)phenyl)sulfonyl)piperidine-4-carboxylic acid], the EC50 at human TGR5 receptor and on mouse TGR5 receptor was 0.1 to 0.999 µM throughout.

Consider `COc1cnccc1-c1cccc(C(C)(C)NS(=O)(=O)c2ccccc2N)c1` [Compound 10, 2-amino-N-(2-(3-(3-methoxypyridin-4-yl)phenyl)propan-2-yl)benzenesulfonamide], for which the EC50 on human TGR5 receptor and on mouse TGR5 receptor was 0.1 to 0.999 µM throughout.

With `Cc1cnccc1-c1cccc([C@H](C)N(CCCC(=O)NCCNC(=O)NCCC(=O)O)S(=O)(=O)c2cccc(Cl)c2C)c1` [Compound 30, (S)-3-((3-Chloro-2-methylphenyl)sulfonyl)-2-(3-(3-methylpyridin-4-yl)phenyl)-7,12-dioxo-3,8,11,13-tetraazahexadecan-16-oic acid], the figures for the EC50 at human TGR5 receptor and on mouse TGR5 receptor were below 0.1 µM and 0.1 to 0.999 µM, respectively.

In the case of `Cc1cnccc1-c1cccc(C2CNCCN2S(=O)(=O)c2ccccc2C(F)(F)F)c1` (racemic) [Compound 44, (+/−) 2-(3-(3-methylpyridin-4-yl)phenyl)-1-((2-(trifluoromethyl)phenyl)sulfonyl)piperazine], the EC50 at human TGR5 receptor and on mouse TGR5 receptor was 0.1 to 0.999 µM each time.

In the case of `Cc1cnccc1-c1cccc(CCN(CCCNC(=O)NCS(=O)(=O)O)S(=O)(=O)c2cccc(Cl)c2C)c1` [Compound 29AD, (3-(3-(3-chloro-2-methyl-N-(3-(3-methylpyridin-4-yl)phenethyl)phenylsulfonamido)propyl)ureido)methanesulfonic acid], the results for the concentration for a half-maximal effect (EC50) on human TGR5 receptor and on mouse TGR5 receptor were 0.1 to 0.999 µM and 1 to 30 µM, respectively.

As for `COc1cnccc1-c1cccc(C(NS(=O)(=O)c2ccccc2C(F)(F)F)c2ccccc2)c1` (stereo not drawn) [Compound 1CC], the EC50 on human TGR5 receptor and at mouse TGR5 receptor was 0.1 to 0.999 µM throughout.

Take `COc1cnccc1-c1cccc(C2CCCN2S(=O)(=O)c2ccccc2C(F)(F)F)c1` (stereo not drawn) [Compound 40AA, 3-methoxy-4-(3-(1-((2-(trifluoromethyl)phenyl)sulfonyl)pyrrolidin-2-yl)phenyl)pyridine]: the concentration giving a half-maximal response (EC50) is below 0.1 µM at human TGR5 receptor and 1 to 30 µM at mouse TGR5 receptor.

Consider `Cc1cnsc1-c1cccc([C@H](C)NS(=O)(=O)c2cccc(Cl)c2C)c1` [Compound 7AA, (S)-3-chloro-2-methyl-N-(1-(3-(4-methylisothiazol-5-yl)-phenyl)ethyl)benzenesulfonamide], for which the EC50 at human TGR5 receptor is 1 to 30 µM; on mouse TGR5 receptor it was above 30 µM.

As for `Cc1cnccc1-c1cccc(C(CCCCC#N)NS(=O)(=O)c2cccc(Cl)c2C)c1` (stereo not drawn) [Compound 35, 3-chloro-N-(5-cyano-1-(3-(3-methylpyridin-4-yl)phenyl)pentyl)-2-methylbenzenesulfonamide], the EC50 at human TGR5 receptor and at mouse TGR5 receptor was 0.1 to 0.999 µM each time.

Take `Cc1cnccc1-c1cccc(C(C)(C)N(CCCNS(=O)(=O)CCN2C(=O)c3ccccc3C2=O)S(=O)(=O)c2cccc(Cl)c2C)c1` [Compound 26A, 3-Chloro-N-(3-((2-(1,3-dioxoisoindolin-2-yl)ethyl)sulfonamido)propyl)-2-methyl-N-(2-(3-(3-methylpyridin-4-yl)phenyl)propan-2-yl)benzenesulfonamide]: the EC50 at human TGR5 receptor was below 0.1 µM; at mouse TGR5 receptor, 0.1 to 0.999 µM.

With `Cc1c(Cl)cccc1S(=O)(=O)N(CCCC(=O)O)C(C)(C)c1cccc(-c2ccncc2CO)c1` [Compound 16AC, 4-(3-chloro-N-(2-(3-(3-(hydroxymethyl)pyridin-4-yl)-phenyl)propan-2-yl)-2-methylphenylsulfonamido)butanoic acid], the EC50 at human TGR5 receptor was below 0.1 µM; at mouse TGR5 receptor, 0.1 to 0.999 µM.

As to `COc1cnccc1-c1cccc(C(C)(C)NS(=O)(=O)c2ccc(Cl)cc2C(F)(F)F)c1` [Compound 2BF], the EC50 was below 0.1 µM at human TGR5 receptor and 0.1 to 0.999 µM on mouse TGR5 receptor.

`CC(C)(NS(=O)(=O)c1ccccc1C(F)(F)F)c1cccc(-c2ccc3[nH]cnc3c2)c1` [Compound 5AL, N-(2-(3-(1H-benzo[d]imidazol-5-yl)phenyl)propan-2-yl)-2-(trifluoromethyl)benzenesulfonamide]: the EC50 on human TGR5 receptor is 1 to 30 µM; at mouse TGR5 receptor, above 30 µM.

Consider `COc1cnccc1-c1cccc(C(C)(C)NS(=O)(=O)c2cc(C(F)(F)F)ccc2C(F)(F)F)c1` [Compound 2BK], for which the EC50 on human TGR5 receptor lay within 0.1 to 0.999 µM; on mouse TGR5 receptor, 1 to 30 µM.

As to `Cc1c(Cl)cccc1S(=O)(=O)N1CCN(C(=O)CS(=O)(=O)O)CC1c1cccc(-c2ccncc2)c1` (stereo not drawn) [Compound 49AD, 2-(4-((3-chloro-2-methylphenyl)sulfonyl)-3-(3-(pyridin-4-yl)phenyl)piperazin-1-yl)-2-oxoethanesulfonic acid], the EC50 on human TGR5 receptor and at mouse TGR5 receptor was 0.1 to 0.999 µM each time.

For the compound `CN(C)c1cc(-c2cccc(C(C)(C)NS(=O)(=O)c3ccccc3C(F)(F)F)c2)ccn1` [Compound 6AB, N-(2-(3-(2-(dimethylamino)-pyridin-4-yl)phenyl)propan-2-yl)-2-(trifluoromethyl)benzenesulfonamide], the EC50 at human TGR5 receptor and at mouse TGR5 receptor was 1 to 30 µM throughout.

Consider `Cc1cnccc1-c1cccc([C@H](C)N(CCCC(=O)N(CC(=O)O)CC(=O)O)S(=O)(=O)c2cccc(Cl)c2C)c1` [Compound 21AK, (S)-2,2′-((4-(3-chloro-2-methyl-N-(1-(3-(3-methylpyridin-4-yl)phenyl)ethyl)phenylsulfonamido)butanoyl)azanediyl)diacetic acid], for which the concentration for a half-maximal effect (EC50) at human TGR5 receptor and on mouse TGR5 receptor was 1 to 30 µM in each case.

As to `Cc1cnccc1-c1cccc([C@H](C)N(CCCCC(=O)NCCOCCNC(=O)NCCS(=O)(=O)O)S(=O)(=O)c2cccc(Cl)c2C)c1` [Compound 28AF, (S)-17-((3-chloro-2-methylphenyl)sulfonyl)-18-(3-(3-methylpyridin-4-yl)phenyl)-4,12-dioxo-8-oxa-3,5,11,17-tetraazanonadecane-1-sulfonic acid], the EC50 at human TGR5 receptor was below 0.1 µM; on mouse TGR5 receptor it was 0.1 to 0.999 µM.
